These results are taken from PubChem BioAssay AID248 (DTP/NCI, 2004).

“And” between values parts separate entries of the source, which are not always exact repeats. Identical values can stand only once. Toxic doses and inconclusive results are not listed.

The assay has as its system L1210 leukemia ip in BDF1 mice, survival T/C. Description: NCI In Vivo Anticancer Drug Screen. Data for tumor model L1210 Leukemia (intraperitoneal) in B6D2F1 (BDF1) mice. The settings on record: endpoint: mean survival time, higher = longer survival. In a few lines:
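Tumor cells were implanted, animals were treated, and survival was followed. The result divides the treated measurement by the vehicle-control measurement.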

Where [1] appears, read: dose: 100.0 mg/kg/injection, schedule: Q01DX009 (ip), vehicle: saline with Tween-80.
The mark [2] stands for this setting: dose: 100.0 mg/kg/injection, schedule: Q04DX003 (ip), vehicle: saline with Tween-80.
The mark [3] stands for this setting: dose: 200.0 mg/kg/injection, schedule: Q01DX009 (ip), vehicle: saline with Tween-80.
Setting [4] is: dose: 200.0 mg/kg/injection, schedule: Q04DX003 (ip), vehicle: saline with Tween-80.
The mark [5] stands for this setting: dose: 400.0 mg/kg/injection, schedule: Q01DX009 (ip), vehicle: saline with Tween-80.
The mark [6] stands for this setting: dose: 400.0 mg/kg/injection, schedule: Q04DX003 (ip), vehicle: saline with Tween-80.
[7] abbreviates: dose: 100.0 mg/kg/injection, schedule: Q01DX009 (ip), vehicle: Klucel (hydroxypropylcellulose) (HPC).
Where [8] appears, read: dose: 200.0 mg/kg/injection, schedule: Q01DX009 (ip), vehicle: Klucel (hydroxypropylcellulose) (HPC).
[9] abbreviates: dose: 400.0 mg/kg/injection, schedule: Q01DX009 (ip), vehicle: Klucel (hydroxypropylcellulose) (HPC).
Setting [10] is: dose: 100.0 mg/kg/injection, schedule: Q04DX003 (ip), vehicle: saline.
Setting [11] is: dose: 200.0 mg/kg/injection, schedule: Q04DX003 (ip), vehicle: saline.
Where [12] appears, read: dose: 100.0 mg/kg/injection, schedule: Q01DX001 (ip), vehicle: saline.
Where [13] appears, read: dose: 200.0 mg/kg/injection, schedule: Q01DX001 (ip), vehicle: saline.
[14] abbreviates: dose: 400.0 mg/kg/injection, schedule: Q01DX001 (ip), vehicle: saline.

Regarding `CCCCCCc1ccccc1`, the T/C under setting [1] is 98 % of control; the T/C under setting [2] was 105 % of control; the T/C under setting [3] is 98 % of control; the T/C under setting [4] is 94 % of control; the T/C under setting [5] is 88 % of control; the T/C under setting [6] was 95 % of control.
`O=C(Nc1ccc(C2=NCCN2)cc1)c1cccc(C(=O)Nc2ccc(C3=NCCN3)cc2)c1Cl`: the T/C reads like this: (dose: 4.5 mg/kg/injection, schedule: Q01DX Z (ip), vehicle: carboxymethylcellulose (CMC)) 105 % of control; (dose: 9.0 mg/kg/injection, schedule: Q01DX Z (ip), vehicle: carboxymethylcellulose (CMC)) 117 % of control; (dose: 18.0 mg/kg/injection, schedule: Q01DX Z (ip), vehicle: carboxymethylcellulose (CMC)) 155 % of control; (dose: 25.0 mg/kg/injection, schedule: Q01DX Z (ip), vehicle: carboxymethylcellulose (CMC)) 211 % of control; (dose: 37.0 mg/kg/injection, schedule: Q01DX Z (ip), vehicle: carboxymethylcellulose (CMC)) 184 % of control; (dose: 62.0 mg/kg/injection, schedule: Q01DX Z (oral), vehicle: carboxymethylcellulose (CMC)) 109 % of control. The T/C runs as follows: (dose: 125.0 mg/kg/injection, schedule: Q01DX Z (oral), vehicle: carboxymethylcellulose (CMC)) 118 % of control; (dose: 250.0 mg/kg/injection, schedule: Q01DX Z (oral), vehicle: carboxymethylcellulose (CMC)) 118 % of control; (dose: 500.0 mg/kg/injection, schedule: Q01DX Z (oral), vehicle: carboxymethylcellulose (CMC)) 98 % of control.
For the molecule `O=C(Nc1cccc2ccccc12)c1ccc(Cl)cc1Cl`, the T/C by setting is: under setting [7], 103 % of control; under setting [8], 100 % of control; under setting [9], 96 % of control.
`Nc1ncnc2c1c(I)cn2C1OC(CO)C(O)C1O` (centres undefined): the T/C (dose: 5.0 mg/kg/injection, schedule: Q01DX001 (ip), vehicle: saline) was 102 % of control; the T/C (dose: 10.0 mg/kg/injection, schedule: Q01DX001 (ip), vehicle: saline) was 101 % of control; the T/C (dose: 20.0 mg/kg/injection, schedule: Q01DX001 (ip), vehicle: saline) was 103 % of control; the T/C (dose: 40.0 mg/kg/injection, schedule: Q01DX001 (ip), vehicle: saline) is 105 % of control.
In the case of `CC(=O)NC1CCC(C(F)(F)F)CC1` (centres undefined), the T/C was 93 % of control and 96 % of control (dose: 100.0 mg/kg/injection, schedule: Q01DX001 (ip), vehicle: Klucel (hydroxypropylcellulose) (HPC)); 95 % of control and 98 % of control (dose: 200.0 mg/kg/injection, schedule: Q01DX001 (ip), vehicle: Klucel (hydroxypropylcellulose) (HPC)); 106 % of control and 98 % of control (dose: 400.0 mg/kg/injection, schedule: Q01DX001 (ip), vehicle: Klucel (hydroxypropylcellulose) (HPC)).
Turning to `COc1cc(N/C(N)=N\C(N)=NC(C)C)cc(OC)c1OC`, the T/C runs as follows: (dose: 50.0 mg/kg/injection, schedule: Q01DX009 (ip), vehicle: saline sonified) 98 % of control; (dose: 100.0 mg/kg/injection, schedule: Q01DX009 (ip), vehicle: saline sonified) 101 % of control; under setting [10], 104 % of control; (dose: 200.0 mg/kg/injection, schedule: Q01DX009 (ip), vehicle: saline sonified) 102 % of control; under setting [11], 110 % of control.
As to `O=C(NCCCOc1ccc([N+](=O)[O-])cc1Cl)Nc1cccc(S(=O)(=O)F)c1`, the T/C under setting [7] was 92 % of control; the T/C (dose: 100.0 mg/kg/injection, schedule: Q04DX003 (ip), vehicle: Klucel (hydroxypropylcellulose) (HPC)) is 106 % of control; the T/C under setting [8] was 98 % of control; the T/C (dose: 200.0 mg/kg/injection, schedule: Q04DX003 (ip), vehicle: Klucel (hydroxypropylcellulose) (HPC)) was 103 % of control; the T/C under setting [9] was 103 % of control; the T/C (dose: 400.0 mg/kg/injection, schedule: Q04DX003 (ip), vehicle: Klucel (hydroxypropylcellulose) (HPC)) is 95 % of control.
Consider `CCN(CC)CCN(C)c1ccc(CO)c2sc3cc(Cl)ccc3c(=O)c12`, for which the T/C is 101 % of control (dose: 7.81 mg/kg/injection, schedule: Q01DX009 (ip), vehicle: saline); 101 % of control (dose: 15.63 mg/kg/injection, schedule: Q01DX009 (ip), vehicle: saline); 100 % of control (dose: 31.25 mg/kg/injection, schedule: Q01DX009 (ip), vehicle: saline); 99 % of control (dose: 62.5 mg/kg/injection, schedule: Q01DX009 (ip), vehicle: saline).
Consider `O=C1/C(=C/c2ccco2)CC2CCCCC12` (centres undefined), for which the T/C (dose: 50.0 mg/kg/injection, schedule: Q01DX009 (ip), vehicle: saline) was 95 % of control; the T/C (dose: 100.0 mg/kg/injection, schedule: Q01DX009 (ip), vehicle: saline) was 102 % of control; the T/C under setting [10] was 88 % of control; the T/C (dose: 200.0 mg/kg/injection, schedule: Q01DX009 (ip), vehicle: saline) is 90 % of control; the T/C under setting [11] is 102 % of control.
For `NOCc1ccc(CON)cc1`, the T/C was 95 % of control under setting [10] and 97 % of control under setting [11].
For `COc1ccc(OC(=S)N(C)C)cc1`, the T/C is 94 % of control under setting [2], 88 % of control under setting [4] and 102 % of control under setting [6].
Take `O=C1NC(=O)C2C3CCC(C12)C3C(c1ccccc1)c1ccccc1` (centres undefined): the T/C by setting is: (dose: 100.0 mg/kg/injection, schedule: Q01DX001 (ip), vehicle: carboxymethylcellulose (CMC)) 106 % of control; (dose: 200.0 mg/kg/injection, schedule: Q01DX001 (ip), vehicle: carboxymethylcellulose (CMC)) 95 % of control; (dose: 400.0 mg/kg/injection, schedule: Q01DX001 (ip), vehicle: carboxymethylcellulose (CMC)) 103 % of control.
Take `C=C(C)CC(N)Cc1ccccc1` (centres undefined): the T/C is 89 % of control (dose: 50.0 mg/kg/injection, schedule: Q04DX002 (ip), vehicle: saline with Tween-80); 95 % of control and 103 % of control (dose: 100.0 mg/kg/injection, schedule: Q04DX002 (ip), vehicle: saline with Tween-80).
On to `CCOC(=O)N1CCC2(CC1)NC(=O)c1ccccc1N2`, for which the T/C is 98 % of control under setting [1]; 100 % of control under setting [2]; 97 % of control under setting [3]; 102 % of control under setting [4]; 97 % of control under setting [5]; 96 % of control under setting [6].
Turning to `COP1(=O)CC=C(C)C1` (centres undefined), the T/C was 98 % of control under setting [12], 98 % of control under setting [13] and 106 % of control under setting [14].
`Cc1cc(N)c2ccccc2[n+]1CCCCCCCCCC[n+]1c(C)cc(N)c2ccccc21`: the T/C is 100 % of control (dose: 0.75 mg/kg/injection, schedule: Q01DX009 (ip), vehicle: Klucel (hydroxypropylcellulose) (HPC)); 109 % of control (dose: 1.5 mg/kg/injection, schedule: Q01DX009 (ip), vehicle: Klucel (hydroxypropylcellulose) (HPC)); 103 % of control (dose: 1.5 mg/kg/injection, schedule: Q04DX003 (ip), vehicle: Klucel (hydroxypropylcellulose) (HPC)); 119 % of control and 124 % of control (dose: 3.0 mg/kg/injection, schedule: Q01DX009 (ip), vehicle: Klucel (hydroxypropylcellulose) (HPC)); 110 % of control (dose: 3.0 mg/kg/injection, schedule: Q04DX003 (ip), vehicle: Klucel (hydroxypropylcellulose) (HPC)); 116 % of control (dose: 6.0 mg/kg/injection, schedule: Q04DX003 (ip), vehicle: Klucel (hydroxypropylcellulose) (HPC)). In addition, the T/C (dose: 12.5 mg/kg/injection, schedule: Q04DX003 (ip), vehicle: Klucel (hydroxypropylcellulose) (HPC)) was 103 % of control.
With `O=[N+]([O-])c1ccc(N(CCO)CCO)cc1`, the T/C by setting is: (dose: 50.0 mg/kg/injection, schedule: Q01DX001 (ip), vehicle: saline) 96 % of control; under setting [12], 100 % of control; under setting [13], 100 % of control; under setting [14], 96 % of control.
In the case of `CC(=O)c1cccc(N2C(=O)CC(=P(c3ccccc3)(c3ccccc3)c3ccccc3)C2=O)c1`, the T/C (dose: 75.0 mg/kg/injection, schedule: Q01DX001 (ip), vehicle: saline) is 93 % of control.
For the molecule `N#C/C(=C\c1cccc2ccccc12)c1ccc(Cl)cc1`, the T/C (dose: 87.5 mg/kg/injection, schedule: Q01DX009 (ip), vehicle: Klucel (hydroxypropylcellulose) (HPC)) is 95 % of control; the T/C (dose: 175.0 mg/kg/injection, schedule: Q01DX009 (ip), vehicle: Klucel (hydroxypropylcellulose) (HPC)) is 96 % of control; the T/C (dose: 350.0 mg/kg/injection, schedule: Q01DX009 (ip), vehicle: Klucel (hydroxypropylcellulose) (HPC)) was 97 % of control.
